# Measured values published in patent publication US10959998B2, “Pharmaceutical use and pharmaceutical composition of pyrroloquinoline quinine, its derivatives and/or its salts” (priority 2015, dated 2021).
# Marks after values point to notes of the source that are not given here.
# Columns and labels:
# [1] = test system: endometrial stromal cells; test: Transwell/matrigel invasion assay; assay type: cell-based, human; settings: 48 h
# Method: 500 μL culture medium containing 10% FBS was added into each wells in a 24-well plate. Transwell chambers were treated with 0.3 mg/ml FN diluted by serum free 1640 culture medium (BD company). The cells were seeded (5×10^4 cells/chamber) in the transwell up-chamber, in which 100 μL media were kept finally. The cells were cultured in an incubator at 37° C. in an air atmosphere containing 5% CO2 for the specified time. The chambers were taken out, stained with 0.1% crystal violet, and were photographed. Crystal violet on the membrane was dissolved with 300 μL of 33% Glacial acetic acid. The optical absorption was measured at wavelength 573 nm. On the ice, 100 μL matrigel was taken in with pre-chilled micropipette, transferred into 300 ul pre-chilled serum free medium. The mixture solution was thoroughly mixed to achieve uniform. 25 ul of the previous diluted matrigel was put into transwell up-chamber, covering the whole carbon ester membrane. The transwell was incubated at 37° C., 30 min for Matrigel gelling. The rest treatment was the same as that in Transwell assay.
# [2] = test system: ectopic endometrial stromal cells; test: Cell cycle by propidium iodide flow cytometry; assay type: cell-based, human; settings: 24 h, p<0.01
# Method: (§1) Endometrial tissues were surgically isolated from patients with chocolate cyst of ovary, washed 2 to 3 times with PBS supplemented with antibiotics in ultra-clean cabinet, and cut into tiny pieces (about 1 mm^3 in size) with aseptic scissors. The tissues were digested with 1 mg/ml collagenase type I for 30 to 90 min at 37° C., and continually digested with Dnase I (final concentration of 15 U/ml, 2% Dnase I) for another 30 min. The digested tissues were filtered thorough 60-mesh stainless steel filter cell strainer to remove the undigested cell tissues, and were further filtered with 200- or 400-mesh strainer. The filtered solution was centrifuged at 1000 rpm for 5 min. After removing the supernatants, the cells were washed once with culture medium compounded by DMEM/F12 (1:1 v/v) and 10% fetal bovine serum, re-suspended in the culture medium, and seeded in 6-well tissue culture plate or T25 tissue culture flasks with an appropriate density. After 24 hours incubation, the culture medium was changed to remove the non-adherent blood cells, endothelial cells, macrophages and other miscellaneous cells. […] Vimentin which expresses specifically in stromal cells was detected by immuno-fluorescence to measure the cell purity. […] Cell cycle was determined with flow cytometry. […] Cell apotosis was determined by flow cytometry.
# [3] = test system: endometrial stromal cells; test: Apoptosis by Annexin V-FITC/PI flow cytometry; assay type: cell-based, human; settings: regardless of dose, 24 h
# Method: as §1
# [4] = test system: superoxide anion radical (O2.-) in endometrial stromal cells; test: Determination of superoxide anion (O2.-) content; assay type: cell-based, human; settings: 18 h
# Method: Superoxide anion (O2.^−) assay kit was purchased from Nanjing Jiancheng Bioengineering Insitute; Hydroxyl free radical assay kit was purchased from Shanghai Xinyu Biological Technology Co., Ltd., Hydrogen Peroxide Assay Kit was purchased from Beyotime Biotechnology Research Institute. The cells were cultured in 96-well cell culture plates for 24 h after the cells adhered to the plate. Three different concentrations PQQ (30 nm, 300 nm and 3 um) were added to the culture medium respectively. After additional 18 h incubation, the culture medium was discarded, and fresh culture medium supplemented with NBT (a final concentration of 1 mg/mL) was added to the cells. The cells were continually cultured for another 1 h at 37° C. The cells were fixed with 100% methanol, and naturally dried. 120 μL KOH (2 mol/L) and 140 μL DMSO were added to the cells. The optical density at wavelength 570 nm was measured.
# [5] = test system: infiltration of endometrial stroma and glands into myometrium; test: Adenomyosis mouse model created with tamoxifen, pathological section; assay type: in vivo, mice
# Method: Disodium salt of PQQ was used in the present experiment (PQQ-Na2, donated by MITSUBISHI gas chemical (MGC), Japan). The salt was dissolved with water and the concentration of its mother liquid is 1 mg/mL.
# In the present Example, the mouse model of adenomyosis was created with tamoxifen. This method is easy to operate, the rate of molding can reach 100%, and the difference between the model mouses caused by the operation is small. At 2˜5 days after birth (the birth day was the first day), the mice were fed with 5 ul/(g·BW) peanut oil/lecithin/condensed milk mixture (volume ratio 2:0.2:3) supplemented with 0.2 mg/ml tamoxifen (produced by shanghai Fudan Fuhua Pharmaceutical Co, Ltd.) by drip feeding. In the negative control group, the mice were fed with peanut oil/lecithin/condensed milk mixture (volume ratio 2:0.2:3), with no tamoxifen added. All the mice were exposed to light for 12 h/day, and were reared by maternal lactation during 1-21 days of age. After 22 days of birth, the mice were separated with mother mice, and the female mice were reserved for the next experiment.
# After 3 months, 7 model mice were killed after anesthesia. […] The remaining model mice were divided into 5 groups with 20 mice in each group. One of the groups was chosen as model control group (fed with normal water). The drinking water for other group were supplemented with PQQ (1 mg/kg/day), NAC (10 mg/kg/day), PQQ (1 mg/kg/day) +NAC (10 mg/kg/day) (denoted by P+N (H)); PQQ (0.2 mg/kg/day) +NAC (5 mg/kg/day) (denoted by P+N (L)).
# After treatment with drugs for 4 weeks, the mice were killed by anesthesia. The uterus was surgically removed and the invasion of endometria into myometrium was analyzed by the pathological section.
# [6] = cited from earlier work
# [7] = 4 weeks in drinking water, PQQ (disodium salt) 1 mg/kg/day, NAC 10 mg/kg/day, P+N (H) 1+10, P+N (L) 0.2+5 mg/kg/day
compound,measurement,setting,value
"O=C(O)c1cc(C(=O)O)c2c(n1)C(=O)C(=O)c1cc(C(=O)O)[nH]c1-2 [PQQ, pyrroloquinoline quinone]",inhibitory effect on cell invasion compared to the control group,"[1]; 300 nM PQQ, statistically meaningful",definite inhibitory effect
same,reduction of invasion ability of endometrial stromal cells,[1]; 3 μM PQQ,35%
same,inhibitory effect on cell invasion compared to the control group,[1]; PQQ,not obvious
same,cell cycle,[2]; PQQ 3 um,arrest the cell in G0/G1 phase
same,cell cycle,[2]; PQQ 300 nm,arrest the cell in G0/G1 phase
same,apoptosis or necrosis compared to the control,[3],No endometrial stromal cells apoptosis or necrosis
same,relative content of superoxide anion radical (O2.-),[4]; PQQ 300 nM,significantly declined
same,relative content of superoxide anion radical (O2.-),[4]; PQQ 3 uM,significantly declined
same,"infiltration of endometrial glands, positive animals/total animals",[5]; [7],9/20*#
same,"infiltration of endometrial stroma, positive animals/total animals",[5]; [7],10/20*#
same,number of animals with infiltration of endometrial stroma and glands compared with model control group,"[5]; after 4 weeks treatment, PQQ as disodium salt",evidently lower than that in the model control group
same,adverse reactions,[6]; mice fed 100 mg/kg body weight/day for 14 consecutive days,did not show any adverse reactions
same,half lethal dose,[6]; mice,1000-2000 mg/kg body weight/day
